{"source": "patent US20100272791A1", "about": "“COMPOSITION HAVING EFFECT ON TREATMENT AND PREVENTION OF DRY EYE SYNDROME” (MD BIOALPHA CO., LTD., priority 2005, published 2010)", "key": {"ocular epithelial cells [1]": {"tested_on": "ocular epithelial cells", "test": "Production of nitric oxide (NO) in H2O2-stimulated corneal epithelial cells (Griess reagent)", "format": "cell-based", "conditions": "100 μM H2O2, then uridine 0 μM to 100 μM, 48 hours, concentration-dependent, FIG. 6"}, "dry eye patients": {"tested_on": "dry eye patients", "test": "Clinical test, oral uridine in dry eye patients (double blind, placebo)", "format": "in vivo, human", "conditions": "oral uridine 100 mg/day, three times a day for 3 months, versus placebo", "procedure": "At initial point of treatment and two weeks, one month, two months and three months after initiation of treatment, changes in corneal symptoms and conditions and the presence/absence of adverse side effects were objectively evaluated by slit-lamp microscopic examination, measurement of intraocular pressure, ophthalmoscopic examination, Schirmer test, impression cytology and analysis photography of anterior eye segment. In addition, subjective questionnaires of individual patients were prepared, and changes in subjective symptoms of patients and the presence/absence of adverse side effects were observed."}, "corneal keratocytes [2]": {"tested_on": "corneal keratocytes", "test": "Proliferation of corneal keratocytes (CCK-8)", "format": "cell-based", "conditions": "uridine 0 μM to 10 μM, 48 hours; effect from 0.1 μM or higher; FIG. 4", "procedure": "Corneal keratocytes were incubated in a 96-well plate and stimulated with uridine (0 μM to 10 μM) for 48 hours. Cell count was carried out at 450 nm using a Cell counting kit-8 (CCK-8)."}, "dry eye-induced rabbits": {"tested_on": "dry eye-induced rabbits", "test": "Concanavalin A-induced dry eye in rabbits, eye drops, impression cytology", "format": "in vivo, rabbit", "conditions": "uridine eye drops in phosphate-buffered saline (1% and 5%), compared to 0.1% hyaluronic acid positive control and PBS control; FIG. 7", "procedure": "Dry eye syndrome was induced by causing ocular inflammation via injection of concanavalin A into the lacrimal gland of rabbits (Journal of Ocular Pharmacology & Therapeutics 21(2), 139-148, 2005). Uridine was dissolved to a concentration of […] in a phosphate-buffered saline solution, respectively, and the resulting solutions were used as eye drops. A commercially available 0.1% hyaluronic acid preparation was used as a positive control group, and a phosphate-buffered saline solution was used as a control group. 1% and 5% uridine preparations, the hyaluronic acid preparation and the phosphate-buffered saline solution were respectively dropped into eyes of the dry eye-induced rabbits, and the impression cytology of ocular cells was performed to confirm alleviation of dry eye syndrome."}, "ocular epithelial cells [3]": {"tested_on": "ocular epithelial cells", "test": "Production of glycosaminoglycan in corneal epithelial cells (Biocolor assay kit)", "format": "cell-based", "conditions": "uridine 0 μM to 50 μM, 48 hours, concentration-dependent, FIG. 5", "procedure": "Ocular epithelial cells were stimulated for 48 hours by treatment with uridine (0 μM to 50 μM). The cell culture was collected, and an amount of glycosaminoglycan was measured at 550 nm using a Biocolor assay kit."}, "corneal keratocytes [4]": {"tested_on": "corneal keratocytes", "test": "Production of glycosaminoglycan in corneal keratocytes (Biocolor assay kit)", "format": "cell-based", "conditions": "uridine 0 μM to 50 μM, 48 hours, effect from 1 μM, concentration-dependent, FIG. 2", "procedure": "Corneal keratocytes were stimulated for 48 hours by treatment of the cells with uridine (0 μM to 50 μM). The cell culture was collected, and an amount of glycosaminoglycan was measured at 550 nm using a Biocolor assay kit."}, "corneal keratocytes [5]": {"tested_on": "corneal keratocytes", "test": "Production of hyaluronic acid in corneal keratocytes (b-HABP plate assay)", "format": "cell-based", "conditions": "uridine 0 μM to 10 μM, 48 hours; effect up to 5 μM, concentration-dependent; FIG. 1", "procedure": "Corneal keratocytes were stimulated for 48 hours by treatment of the cells with uridine (0 μM to 10 μM). 100 μl of the cell culture was collected, and reacted with 100 μl of biotinylated hyaluronic acid binding protein (b-HABP, 50 ng/mL) at room temperature for 1 hour. On the day prior to experiments, 20 μg/mL of HA and a solution of 20 mM Na2CO3 were added to a 96-well plate which was then stored in a refrigerator for 24 hours, and washed with a standard assay buffer (SAB) three times. 1% BSA was added to the 96-well plate which was then reacted at room temperature for 90 min and washed with SAB three times to thereby prepare an HA-coated plate. The above-prepared cell culture was added to the HA-coated plate, and reacted with stirring at room temperature for 1 hour. Thereafter, the cell culture thus reacted was washed with SAB three times, followed by addition of Extra-avidin alkaline phosphatase (1:80000), reaction at room temperature for 30 min, and washing with SAB three times. 1 mg/mL of a disodium p-nitrophenyl solution in 100 mM NaCl and 5 mM MgCl was added to the cell culture which was then reacted for 20 to 60 min. Thereafter, 3N NaOH was added to terminate the reaction, and an amount of hyaluronic acid was measured at 405 nm."}, "corneal keratocytes [6]": {"tested_on": "corneal keratocytes", "test": "Production of nitric oxide (NO) in H2O2-stimulated corneal keratocytes (Griess reagent)", "format": "cell-based", "conditions": "100 μM H2O2, then uridine 0 μM to 100 μM, 48 hours, effect up to 50 μM, concentration-dependent, FIG. 3"}}, "data": [{"smiles": "O=c1ccn([C@@H]2O[C@H](CO)[C@@H](O)[C@H]2O)c(=O)[nH]1", "note": "[uridine]", "values": [{"measurement": "production of nitric oxide (NO)", "setting": "ocular epithelial cells [1]", "result": "inhibited production of nitric oxide (NO)"}, {"measurement": "tear-secretion test (Schirmer test)", "setting": "dry eye patients; FIG. 8", "result": "significant difference"}, {"measurement": "corneal staining", "setting": "dry eye patients; FIG. 9", "result": "significant difference"}, {"measurement": "proliferation of cells", "setting": "corneal keratocytes [2]", "result": "promoted proliferation of cells"}, {"measurement": "restoration of epithelial cells in the impression cytology of ocular cells", "setting": "dry eye-induced rabbits", "result": "significant restoration of epithelial cells"}, {"measurement": "production of glycosaminoglycan", "setting": "ocular epithelial cells [3]", "result": "promoted production of glycosaminoglycan"}, {"measurement": "production of glycosaminoglycan", "setting": "corneal keratocytes [4]", "result": "promoted production of glycosaminoglycan"}, {"measurement": "production of hyaluronic acid", "setting": "corneal keratocytes [5]", "result": "promoted production of hyaluronic acid"}, {"measurement": "production of nitric oxide (NO)", "setting": "corneal keratocytes [6]", "result": "inhibited production of nitric oxide (NO)"}]}]}
